Read-outs that look alike come from different tables or passages of the source.
Key:
Format in all cases: cell-based, Escherichia coli
[1] = tested on: wild-type (WT) K-12-Pore; assay: microbe, parasite or virus in culture; conditions: Escherichia coli, technical duplicate
In short: (§1)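 Strains carry the fhuA ΔC/Δ4L pore integrated between glmS and pstS under a constitutive promoter, with pore activity checked by vancomycin susceptibility. Overnight LB cultures were adjusted in PBS pH 7.4 to OD600 ~1.0 and diluted 1/2000 into MHB II. 2-fold compound titrations were read by OD600 after 18 h at 37 °C.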

[2] = tested on: ΔtolC-Pore; assay: microbe, parasite or virus in culture; conditions: for MIC: Escherichia coli, 18 h, read-out: Minimum inhibitory concentration, ΔtolC-Pore; for Minimum inhibitory concentration (MIC), Pore ΔtolC: Table 10, with pore, technical duplicate
In short: as §1

[3] = tested on: EKO-35 araC::emrKY Pore; assay: MIC susceptibility profiling, porinated efflux platform; conditions: for Fold changes of MICs: EKO-35 araC::emrKY Pore compared to EKO-35-Pore; for MIC: Escherichia coli, EKO-35 araC::emrKY Pore, technical duplicate, read-out: Minimum inhibitory concentration
In short: as §1

[4] = tested on: EKO-35 araC::mdtEF Pore; assay: as above; conditions: for Fold changes of MICs: EKO-35 araC::mdtEF Pore compared to EKO-35-Pore; for MIC: Escherichia coli, Table 14A, porinated, technical duplicate, read-out: Minimum inhibitory concentration, EKO-35 araC::mdtEF Pore
In short: as §1

[5] = tested on: EKO-35 araC::macAB Pore; assay: as above; conditions: for Fold changes of MICs: EKO-35 araC::macAB Pore compared to EKO-35-Pore; for MIC: Escherichia coli, EKO-35 araC::macAB Pore, technical duplicate, read-out: Minimum inhibitory concentration
In short: as §1

[6] = tested on: EKO-35 araC::acrEF Pore; assay: as above; conditions: for Fold changes of MICs: EKO-35 araC::acrEF Pore compared to EKO-35-Pore; for MIC: Escherichia coli, Table 14A, porinated, technical duplicate, read-out: Minimum inhibitory concentration, EKO-35 araC::acrEF Pore
In short: as §1

[7] = tested on: E. coli ΔtolC; assay: microbe, parasite or virus in culture; conditions: for MIC: Escherichia coli, 18 h, read-out: Minimum Inhibitory Concentration, ΔtolC; for Minimum inhibitory concentration (MIC), ΔtolC: without pore, technical duplicate
In short: (§2)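 MHB II broth microdilution; inoculum from 18 h LB culture, PBS-adjusted to OD600 ~1.0, then 1/2000 dilution. Compounds 2-fold titrated, duplicates, DMSO solvent control. 18 h, 37 °C, 900 rpm; background-corrected OD600 end point.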

[8] = tested on: E. coli EKO-35; assay: microbe, parasite or virus in culture; conditions: for Fold change of MICs: EKO-35 compared to EKO-35 (reference); for MIC: Escherichia coli, EKO35, technical duplicate
In short: as §2

[9] = tested on: wild-type E. coli K-12 str. BW25113; assay: microbe, parasite or virus in culture; conditions: Escherichia coli, BW25113, technical duplicate
In short: as §2

[10] = tested on: EKO-35 araC::mdtBC; assay: MIC susceptibility profiling, efflux platform; conditions: for Fold change of MICs: EKO-35 araC::mdtBC compared to EKO-35; for MIC: Escherichia coli, Table 13B, non-porinated, technical duplicate, read-out: Minimum Inhibitory Concentration, EKO-35 araC::mdtBC
In short: as §2

[11] = tested on: EKO-35 araC::macAB; assay: MIC susceptibility profiling, efflux platform; conditions: for Fold change of MICs: EKO-35 araC::macAB compared to EKO-35; for MIC: Escherichia coli, Table 13B, non-porinated, technical duplicate, read-out: Minimum Inhibitory Concentration, EKO-35 araC::macAB
In short: as §2

[12] = tested on: EKO-35 araC::acrBD408A; assay: MIC susceptibility profiling, efflux platform; conditions: for Fold change of MICs: EKO-35 araC::acrBD408A compared to EKO-35; for MIC: Escherichia coli, Table 13B, non-porinated, technical duplicate, read-out: Minimum Inhibitory Concentration, EKO-35 araC::acrBD408A
In short: as §2

[13] = tested on: EKO-35 araC::mdtEF; assay: MIC susceptibility profiling, efflux platform; conditions: for Fold change of MICs: EKO-35 araC::mdtEF compared to EKO-35; for MIC: Escherichia coli, Table 13A, non-porinated, technical duplicate, read-out: Minimum Inhibitory Concentration, EKO-35 araC::mdtEF
In short: as §2

[14] = tested on: EKO-35 araC::emrKY; assay: MIC susceptibility profiling, efflux platform; conditions: for Fold change of MICs: EKO-35 araC::emrKY compared to EKO-35; for MIC: Escherichia coli, Table 13B, non-porinated, technical duplicate, read-out: Minimum Inhibitory Concentration, EKO-35 araC::emrKY
In short: as §2

[15] = tested on: EKO-35 araC::emrAB; assay: MIC susceptibility profiling, efflux platform; conditions: for Fold change of MICs: EKO-35 araC::emrAB compared to EKO-35; for MIC: Escherichia coli, Table 13B, non-porinated, technical duplicate, read-out: Minimum Inhibitory Concentration, EKO-35 araC::emrAB
In short: as §2

[16] = tested on: EKO-35 araC::acrEF; assay: MIC susceptibility profiling, efflux platform; conditions: for Fold change of MICs: EKO-35 araC::acrEF compared to EKO-35; for MIC: Escherichia coli, Table 13A, non-porinated, technical duplicate, read-out: Minimum Inhibitory Concentration, EKO-35 araC::acrEF
In short: as §2

[17] = tested on: EKO-35 araC::acrB; assay: MIC susceptibility profiling, efflux platform; conditions: for Fold change of MICs: EKO-35 araC::acrB compared to EKO-35; for MIC: Escherichia coli, Table 13A, non-porinated, technical duplicate, read-out: Minimum Inhibitory Concentration, EKO-35 araC::acrB
In short: as §2

[18] = tested on: EKO-35 araC::mexCD (MexCD from P. aeruginosa); assay: MIC susceptibility profiling, efflux platform; conditions: for Fold change of MICs: EKO-35 araC::mexCD compared to EKO-35; for MIC: Table 13B, non-porinated, technical duplicate, read-out: Minimum Inhibitory Concentration, EKO-35 araC::mexCD
In short: as §2

[19] = tested on: EKO-35 araC::acrD; assay: MIC susceptibility profiling, efflux platform; conditions: for Fold change of MICs: EKO-35 araC::acrD compared to EKO-35; for MIC: Escherichia coli, Table 13A, non-porinated, technical duplicate, read-out: Minimum Inhibitory Concentration, EKO-35 araC::acrD
In short: as §2

[20] = Table 10, with pore, read-out: Minimum inhibitory concentration (MIC), Pore K-12
[21] = Table 14A, porinated, read-out: Minimum inhibitory concentration, K-12 (WT)-Pore
[22] = Table 10, without pore, read-out: Minimum inhibitory concentration (MIC), EKO-35
[23] = Table 13A, non-porinated, read-out: Minimum Inhibitory Concentration, EKO-35
[24] = Table 10, without pore, read-out: Minimum inhibitory concentration (MIC), K-12
[25] = Table 13A, non-porinated, read-out: Minimum Inhibitory Concentration, K-12

SMILES	MIC [1, 20] [µg/mL]	MIC [2] [µg/mL]	Minimum inhibitory concentration (MIC), Pore ΔtolC [2] [µg/mL]	Fold changes of MICs [3] [fold]	Fold changes of MICs [4] [fold]	Fold changes of MICs [5] [fold]	MIC [5] [µg/mL]	Fold changes of MICs [6] [fold]	MIC [7] [µg/mL]	Minimum inhibitory concentration (MIC), ΔtolC ([7]; Table 10) [µg/mL]	Fold change of MICs [8] [fold]	MIC [8, 22] [µg/mL]	MIC [8, 23] [µg/mL]	MIC [9, 24] [µg/mL]	MIC [9, 25] [µg/mL]	Fold change of MICs [10] [fold]	Fold change of MICs [11] [fold]	Fold change of MICs [12] [fold]	MIC [12] [µg/mL]	Fold change of MICs [13] [fold]	further results
CN[C@H](CC(C)C)C(=O)N[C@H]1C(=O)N[C@@H](CC(N)=O)C(=O)N[C@H]2C(=O)N[C@H]3C(=O)N[C@H](C(=O)N[C@H](C(=O)O)c4cc(O)cc(O)c4-c4cc3ccc4O)[C@H](O)c3ccc(c(Cl)c3)Oc3cc2cc(c3O[C@@H]2O[C@H](CO)[C@@H](O)[C@H](O)[C@H]2O[C@H]2C[C@](C)(N)[C@H](O)[C@H](C)O2)Oc2ccc(cc2Cl)[C@H]1O [vancomycin]	3.12	6.25	6.25	1	1	1	6.25	1	200	200	1	200	200	200	200	1	1	1	200	1	MIC [1, 21]: 3.12 µg/mL; MIC [4]: 6.25 µg/mL; MIC [10]: 200 µg/mL; MIC [11]: 200 µg/mL; MIC [13]: 200 µg/mL; Fold change of MICs [14]: 1 fold; MIC [14]: 200 µg/mL; Fold change of MICs [15]: 1 fold; MIC [15]: 200 µg/mL; Fold change of MICs [16]: 1 fold; MIC [16]: 200 µg/mL; Fold change of MICs [17]: 1 fold; MIC [17]: 200 µg/mL; Fold change of MICs [18]: 1 fold; MIC [18]: 200 µg/mL; Fold change of MICs [19]: 1 fold; MIC [19]: 200 µg/mL
CCn1cc(C(=O)O)c(=O)c2cc(F)c(N3CCNCC3)cc21 [norfloxacin]	0.078	0.01	0.010	1	2	2	0.02	4	0.02	0.020	1	0.02	0.02	0.078	0.078	1	1	1	0.02	1	MIC [1, 21]: 0.078 µg/mL; MIC [3]: 0.01 µg/mL; MIC [4]: 0.02 µg/mL; MIC [6]: 0.039 µg/mL; MIC [10]: 0.02 µg/mL; MIC [11]: 0.02 µg/mL; MIC [13]: 0.02 µg/mL; MIC [14]: 0.01 µg/mL; Fold change of MICs [15]: 1 fold; MIC [15]: 0.02 µg/mL; Fold change of MICs [16]: 4 fold; Fold change of MICs [17]: 4 fold; Fold change of MICs [18]: 2 fold; MIC [18]: 0.039 µg/mL; Fold change of MICs [19]: 1 fold; MIC [19]: 0.02 µg/mL
CO[C@@H]1[C@@H](OC(N)=O)[C@@H](O)[C@H](Oc2ccc3c(O)c(NC(=O)c4ccc(O)c(CC=C(C)C)c4)c(=O)oc3c2C)OC1(C)C [novobiocin]	12.5	0.391	0.391	1	16	1	0.781	32	0.781	0.781	1	3.12	3.12	200	200	4	1	1	3.12	16	MIC [1, 21]: 12.5 µg/mL; MIC [3]: 0.781 µg/mL; MIC [6]: 25 µg/mL; fold difference in MIC between EKO-35 and ΔtolC ([7]; ΔtolC mutant more susceptible than EKO-35, Table 10): 4 fold; efflux pump-mediated resistance vs EKO-35 ([10]; MdtBC): conferred resistance; MIC [11]: 1.56 µg/mL; MIC [13]: 50 µg/mL; Fold change of MICs [14]: 1 fold; MIC [14]: 3.12 µg/mL; Fold change of MICs [15]: 8 fold; MIC [15]: 25 µg/mL; Fold change of MICs [16]: 128 fold; Fold change of MICs [17]: 128 fold; Fold change of MICs [18]: 8 fold; MIC [18]: 25 µg/mL; efflux pump-mediated resistance vs EKO-35 ([19]; AcrD): confirmed; Fold change of MICs [19]: 64 fold; MIC [19]: 200 µg/mL
CC1(C)S[C@@H]2[C@H](NC(=O)[C@H](N)c3ccccc3)C(=O)N2[C@H]1C(=O)O [ampicillin]	12.5	1.56	1.563	2	1	1	1.56	2	25	25	1	25	25	100	100	1	1	1	25	1	MIC [3]: 3.12 µg/mL; MIC [4]: 1.56 µg/mL; MIC [6]: 3.12 µg/mL; MIC [10]: 25 µg/mL; MIC [13]: 25 µg/mL; Fold change of MICs [14]: 1 fold; MIC [14]: 25 µg/mL; Fold change of MICs [15]: 1 fold; MIC [15]: 25 µg/mL; Fold change of MICs [16]: 2 fold; MIC [16]: 50 µg/mL; Fold change of MICs [17]: 4 fold; MIC [17]: 100 µg/mL; Fold change of MICs [18]: 1 fold; MIC [18]: 25 µg/mL; Fold change of MICs [19]: 4 fold; MIC [19]: 100 µg/mL

From US20230407243A1, “GENETIC PLATFORM TO INVESTIGATE THE FUNCTIONS OF BACTERIAL DRUG EFFLUX PUMPS” (priority 2022, published 2023)
